According to patent publication US20130310396A1, “THIAZOLIDINE DERIVATIVES AND THEIR THERAPEUTIC USE” (priority 2011, published 2013):

Experiment: in vitro
Assay type: in vitro ADME
Settings: human liver microsomes, 0.5 mg/mL microsomal protein, 1 mM NADPH, 37° C., N=1; for half-life: both sexes
Protocol: The liver microsomes stability of compounds of Examples 1, 4 and 5 were compared with Teneligliptin.
The metabolic stability of compounds of the invention was tested using pooled liver microsomes prepared from mixed-gender humans, with 1 mM NADPH. The samples were analyzed using an LTQ-Orbitrap XL mass spectrometer. HRMS was used to determine the peak area response ratio (peak area corresponding to test compound or control divided by that of an analytical internal standard) without running a standard curve. HRMS scan was performed in an appropriate m/z range in order to detect all plausible metabolites.
The assay was run with a single incubation (N=1). Incubated test compounds at 37° C. in a buffer solution containing 0.5 mg/mL microsomal protein. Initiated the reaction by adding cofactors, sampling at 0, 10, 20, 30, and 60 minutes. Incubated positive control (5 μM testosterone) in parallel and sampling at 0, 5 10, and 30 minutes.
The control compound testosterone was run in parallel to verify the enzymatic activity of the microsomes. After the final time point, fluorimetry was used to confirm the addition of NADPH to the reaction mixture. T1/2 of control met the internal acceptance criteria.
Column: Thermo BDS Hypersil C18 30×2.0 mm, 3 μm, with guard column M.P. Buffer: 25 mM ammonium formate buffer, pH 3.5 Aqueous Reservoir (A): 90% water, 10% buffer Organic Reservoir (B): 90% acetonitrile, 10% buffer

Row | half-life [h] | Percentage Remaining 0 min [%] | Percentage Remaining 10 min [%] | Percentage Remaining 20 min [%] | Percentage Remaining 30 min [%] | Percentage Remaining 60 min [%] | SMILES
1 | > 1 | 100 | 92 | 85 | 70 | 60 | [2H]C1([2H])CSC([2H])([2H])N1C(=O)C1CC(N2CCN(c3cc(C)nn3-c3ccccc3)CC2)CN1 [Example 1, ((2S,4S)-4-(4-(3-Methyl-1-phenyl-1H-pyrazol-5-yl)piperazin-1-yl)pyrrolidin-2-yl)(2,2,4,4-D4-thiazolidin-3-yl)methanone]
2 | > 1 | 100 | 95 | 87 | 75 | 65 | [2H]c1ccc(-n2nc(C)cc2N2CCN([C@@H]3CN[C@H](C(=O)N4CCSC4)C3)CC2)cc1 [Example 4, ((2S,4S)-4-(4-(1-(4-D-Phenyl)-3-methyl-1H-pyrazol-5-yl)piperazin-1-yl)pyrrolidin-2-yl)(thiazolidin-3-yl)methanone]
3 | > 1 | 100 | 90 | 87 | 70 | 60 | [2H][C@@]1(N2CCN(c3cc(C)nn3-c3ccccc3)CC2)CN[C@H](C(=O)N2CCSC2)C1 [Example 5]
4 | > 1 | 100 | 90 | 85 | 65 | 55 | Cc1cc(N2CCN([C@@H]3CN[C@H](C(=O)N4CCSC4)C3)CC2)n(-c2ccccc2)n1 [Teneligliptin, ((2S,4S)-4-(4-(3-methyl-1-phenyl-1H-pyrazol-5-yl)piperazin-1-yl)pyrrolidin-2-yl)(thiazolidin-3-yl)methanone, reference compound]
